Laboratory results reported in patent US6191282A, “Substituted 5-membered ring heterocycles comprising a bicyclic or tricyclic group their preparation and their use” (Hoechst Marion Roussel, priority 1993, dated 2001).
Structures can show the parent of a compound that is named as a salt. Where two headings read alike, the source gives them in different places.

Test system: gel-filtered human thrombocytes
Assay: Inhibition of the aggregation of gel-filtered human thrombocytes following stimulation with ADP or thrombin (Test method 1)
Assay type: cell-based
Conditions: 1 mg/ml fibrinogen, 37° C., GFP from 2-4 donors
Protocol: As a functional test, measurement is made of the inhibition of the aggregation of gel-filtered human thrombocytes, following stimulation with ADP or thrombin, by the compounds according to the invention.
For this purpose, human thrombocytes were isolated from platelet-rich plasma (PRP) by gel filtration on Sepharose 2 B. The resulting suspension of gel-filtered platelets (GFP), which contained 3×10^8 platelets/ml, was activated in the presence of 1 mg/ml of fibrinogen either with 10 μM ADP or with 0.1 U/ml thrombin, and stirred in an aggregometer (PAP 4, Biodata, Hatboro, Penna., USA) at 37° C. and at 1000 revolutions per minute. The maximum increase in the translucency is taken as a measure of the aggregation. The test substances were added to the GFP at 37° C. and 2 min before activating with ADP or thrombin.

[1] = Homo sapiens, ADP-stimulated (10 μM ADP), read-out: IC50, inhibition of thrombocyte aggregation, ADP-stimulated
[2] = Homo sapiens, Thrombin-stimulated (0.1 U/ml thrombin), read-out: IC50, inhibition of thrombocyte aggregation, Thrombin-stimulated
[3] = ADP-stimulated (10 μM ADP), read-out: IC50, inhibition of thrombocyte aggregation, ADP-stimulated
[4] = Thrombin-stimulated (0.1 U/ml thrombin), read-out: IC50, inhibition of thrombocyte aggregation, Thrombin-stimulated

IC50 [1] [nM] | IC50 [2] [nM] | IC50 [3] [nM] | IC50 [4] [nM] | SMILES
500 | 400 |  |  | CCCCCC(=O)NC(CNC(=O)CN1C(=O)NC(C)(c2ccc(C(=N)N)cc2)C1=O)C(=O)O (racemic) [Example 30, (R,S)-3-(((R,S)-4-(4-(Aminoiminomethyl)phenyl)-4-methyl-2,5-dioxoimidazolidin-1-yl)acetylamino)-2-pentylcarbonylaminopropionic acid]
3000 | 600 |  |  | CCCCCC(=O)NC(CNC(=O)CN1C(=O)N(C)C(C)(c2ccc(C(=N)N)cc2)C1=O)C(=O)O (racemic) [Example 31, (R,S)-3-(((R,S)-4-(4-(Aminoiminomethyl)phenyl)-3,4-dimethyl-2,5-dioxoimidazolidin-1-yl)acetylamino)-2-pentylcarbonylaminopropionic acid]
200 | 150 |  |  | CCCCS(=O)(=O)NC(CNC(=O)CN1C(=O)NC(C)(c2ccc(C(=N)N)cc2)C1=O)C(=O)O (racemic) [Example 32, (R,S)-3-(((R,S)-4-(4-(Aminoiminomethyl)phenyl)-4-methyl-2,5-dioxoimidazolidin-1-yl)acetylamino)-2-butylsulphonylaminopropionic acid]
500 | 200 |  |  | CCCCS(=O)(=O)NC(CNC(=O)CN1C(=O)N(C)C(C)(c2ccc(C(=N)N)cc2)C1=O)C(=O)O (racemic) [Example 33, (R,S)-3-(((R,S)-4-(4-(Aminoiminomethyl)phenyl)-3,4-dimethyl-2,5-dioxoimidazolidin-1-yl)acetylamino)-2-butylsulphonylaminopropionic acid]
2500 | 1500 |  |  | CC1(c2ccc(C(=N)N)cc2)NC(=O)N(CC(=O)NC(CS(=O)(=O)NC(=O)Nc2ccccc2)C(=O)OCc2ccccc2)C1=O (racemic) [Example 34, 2-((R,S)-4-(4-Aminoiminomethyl)phenyl)-4-methyl-2,5-dioxoimidazolidin-1-yl)-N-((R,S)-1-benzyloxycarbonyl-2-(3-phenylureidosulphonyl)ethyl)acetamide]
100 | 300 |  |  | COc1ccc(C(CC(=O)O)NC(=O)CN2C(=O)NC(C)(c3ccc(C(=N)N)cc3)C2=O)cc1O (racemic) [Example 35, (R,S)-3-(((R,S)-4-(4-(Aminoiminomethyl)phenyl)-4-methyl-2,5-dioxoimidazolidin-1-yl)acetylamino)-3-(3-hydroxy-4-methoxyphenyl)propionic acid]
200 | 150 |  |  | COc1cc(C(CC(=O)O)NC(=O)CN2C(=O)NC(C)(c3ccc(C(=N)N)cc3)C2=O)ccc1O (racemic) [Example 36, (R,S)-3-(((R,S)-4-(4-(Aminoiminomethyl)phenyl)-4-methyl-2,5-dioxoimidazolidin-1-yl)acetylamino)-3-(4-hydroxy-3-methoxyphenyl)propionic acid]
100 | 200 |  |  | CCOc1ccc(C(CC(=O)O)NC(=O)CN2C(=O)NC(C)(c3ccc(C(=N)N)cc3)C2=O)cc1 (racemic) [Example 37, (R,S)-3-(((R,S)-4-(4-(Aminoiminomethyl)phenyl)-4-methyl-2,5-dioxoimidazolidin-1-yl)acetylamino)-3-(4-ethoxyphenyl)propionic acid]
300 | 350 |  |  | CC1(c2ccc(C(=N)N)cc2)NC(=O)N(CC(=O)NC(CC(=O)O)c2cccc3ccccc23)C1=O (racemic) [Example 38, (R,S)-3-(((R,S)-4-(4-(Aminoiminomethyl)phenyl)-4-methyl-2,5-dioxoimidazolidin-1-yl)acetylamino)-3-(1-naphthyl)propionic acid]
100 | 150 |  |  | CC1(c2ccc(C(=N)N)cc2)NC(=O)N(CC(=O)NC(CC(=O)O)c2cccc(OCc3ccccc3)c2)C1=O (racemic) [Example 41, (R,S)-3-(((R,S)-4-(4-(Aminoiminomethyl)phenyl)-4-methyl-2,5-dioxoimidazolidin-1-yl)acetylamino)-3-(3-benzyloxyphenyl)propionic acid]
300 | 200 |  |  | CC1(c2ccc(C(=N)N)cc2)NC(=O)N(CC(=O)NC(CC(=O)O)c2cccc(C(=O)O)c2)C1=O (racemic) [Example 42, (R,S)-3-(((R,S)-4-(4-(Aminoiminomethyl)phenyl)-4-methyl-2,5-dioxoimidazolidin-1-yl)acetylamino)-3-(3-hydroxycarbonylphenyl)propionic acid]
500 | 500 |  |  | CC1(c2ccc(C(=N)N)cc2)NC(=O)N(CC(=O)NC(CC(=O)O)c2cccc(Oc3ccccc3)c2)C1=O (racemic) [Example 43, (R,S)-3-(((R,S)-4-(4-(Aminoiminomethyl)phenyl)-4-methyl-2,5-dioxoimidazolidin-1-yl)acetylamino)-3-(3-phenoxyphenyl)propionic acid]
400 | 200 |  |  | COc1cc(C(CC(=O)O)NC(=O)CN2C(=O)NC(C)(c3ccc(C(=N)N)cc3)C2=O)cc(OC)c1OC (racemic) [Example 44, (R,S)-3-(((R,S)-4-(4-(Aminoiminomethyl)phenyl)-4-methyl-2,5-dioxoimidazolidin-1-yl)acetylamino)-3-(3,4,5-trimethoxyphenyl)propionic acid]
200 | 200 |  |  | CC1(c2ccc(C(=N)N)cc2)NC(=O)N(CC(=O)NC(CC(=O)O)c2ccc(O)cc2)C1=O (racemic) [Example 45, (R,S)-3-(((R,S)-4-(4-(Aminoiminomethyl)phenyl)-4-methyl-2,5-dioxoimidazolidin-1-yl)acetylamino)-3-(4-hydroxyphenyl)priopionic acid]
100 | 150 |  |  | CC1(c2ccc(C(=N)N)cc2)NC(=O)N(CC(=O)NC(CC(=O)O)c2cccnc2)C1=O (racemic) [Example 47, (R,S)-3-(((R,S)-4-(4-(Aminoiminomethyl)phenyl)-4-methyl-2,5-dioxoimidazolidin-1-yl)acetylamino)-3-(3-pyridyl)propionic acid]
600 | 200 |  |  | CC1(c2ccc(C(=N)N)cc2)NC(=O)N(CC(=O)NC(CC(=O)O)C2CCCCC2)C1=O (racemic) [Example 49, (R,S)-3-(((R,S)-4-(4-(Aminoiminomethyl)phenyl)-4-methyl-2,5-dioxoimidazolidin-1-yl)acetylamino)-3-cyclohexylpropionic acid]
550 | 400 |  |  | CN1C(=O)N(CC(=O)NC(CC(=O)O)c2ccccc2)C(=O)C1(C)c1ccc(C(=N)N)cc1 (racemic) [Example 50, (R,S)-3-(((R,S)-4-(4-(Aminoiminomethyl)phenyl)-3,4-dimethyl-2,5-dioxoimidazolidin-1-yl)acetylamino)-3-phenylpropionic acid]
500 | 400 |  |  | CCN1C(=O)N(CC(=O)NC(CC(=O)O)c2ccccc2)C(=O)C1(C)c1ccc(C(=N)N)cc1 (racemic) [Example 52, (R,S)-3-(((R,S)-4-(4-(Aminoiminomethyl)phenyl)-3-ethyl-4-methyl-2,5-dioxoimidazolidin-1-yl)acetylamino)-3-phenylpropionic acid]
80 | 200 |  |  | CC1(c2ccc(C(=N)N)cc2)NC(=O)N(CC(=O)NC(CC(=O)O)c2ccc3c(c2)OCO3)C1=O (racemic) [Example 67, (R,S)-3-(((R,S)-4-(4-(aminoiminomethyl)phenyl)-4-methyl-2,5-dioxoimidazolidin-1-yl)acetylamino)-3-(3,4-methylenedioxyphenyl)propionic acid]
 |  | 50000 | 40000 | CC1(c2ccc(C(=N)N)cc2)NC(=O)N(CC(=O)N[C@H](CC(=O)O)c2ccccc2)C1=O (single isomer, unassigned) [Example 59, (R)-3-(((S or R)-4-(4-(aminoiminomethyl)phenyl)-4-methyl-2,5-dioxoimidazolidin-1-yl)acetylamino)-3-phenylpropionic acid]
 |  | 5000 | 4000 | CC1(c2ccc(C(=N)N)cc2)NC(=O)N(CC(=O)N[C@H](CC(=O)O)c2ccccc2)C1=O (single isomer, unassigned) [Example 60, (R)-3-(((R or S)-4-(4-(aminoiminomethyl)phenyl)-4-methyl-2,5-dioxoimidazolidin-1-yl)acetylamino)-3-phenylpropionic acid]
2500 | 800 |  |  | CC1(c2ccc(C(=N)N)cc2)NC(=O)N(CC(=O)NC[C@H](NC(=O)OCc2ccccc2)C(=O)O)C1=O (stereo partly drawn) [Example 6, 3-(((R,S)-4-(4-(Aminoiminomethyl)phenyl)-4-methyl-2,5-dioxoimidazolidin-1-yl)acetylamino)-2-benzyloxycarbonylaminopropionic acid]
300 | 300 |  |  | CC1(c2ccc(C(=N)N)cc2)NC(=O)N(CC(=O)NC[C@H](N)C(=O)O)C1=O (stereo partly drawn) [Example 7, 2-Amino-3-(((R,S)-4-(4-(aminoiminomethyl)-phenyl)-4-methyl-2,5-dioxoimidazolidin-1-yl)acetylamino)propionic acid hydrochloride]

SMILES | IC50 [1] [nM] | IC50 [2] [nM] | IC50 [3] [nM] | IC50 [4] [nM]
CC1(c2ccc(CN)cc2)NC(=O)N(CC(=O)N[C@@H](CC(=O)O)C(=O)N[C@H](C(=O)O)c2ccccc2)C1=O (stereo partly drawn) [Example 8, ((R,S)-4-(4-(Aminomethyl)phenyl)-4-methyl-2,5-dioxoimidazolidin-1-yl)acetyl-L-aspartyl-L-phenylglycine] | 150 | 100 |  | 
